Results published in patent US10711004B2 (Genentech, Inc., priority 2018, dated 2020).

These molecules were tested against human TRPA1 channel (Homo sapiens (Human), UniProt O75762) (assay: hTRPA1 CHO Ca2+ FLIPR Tetra assay, block of cinnamaldehyde induced calcium influx). Details: CHO cells expressing TRPA1; compounds incubated 10 minutes at room temperature before cinnamaldehyde agonist; Hill coefficient fixed to 1.5.
Type: cell-based
Procedure: CHO cells expressing TRPA1 were plated into 384-well plates, incubated overnight at 37° C., and loaded with BD calcium indicator dye for 1 hr at 37° C. followed by 15 minutes at room temperature. The assay buffer was Hank's Balanced Salt Solution (HBSS) containing 20 mM HEPES (pH readjusted to 7.4) along with 0.02% BSA.
Following dye load and plate cool down, compounds were added to the cells using FLIPR Tetra. Plates were then incubated with compounds for 10 minutes or 90 minutes at room temperature prior to adding agonist. Following this incubation, about an EC50 concentration of cinnamaldehyde (75) was added to active the channels and block of cinnamaldehyde induced calcium influx was measured.
Fixing the Hill coefficient will generally reduce variability of the IC50 determination. The IC50 results were individually examined to make sure the MIN and MAX points were set correctly prior to validation of the results.

human TRPA1 channel, sequence (O75762 whole entry): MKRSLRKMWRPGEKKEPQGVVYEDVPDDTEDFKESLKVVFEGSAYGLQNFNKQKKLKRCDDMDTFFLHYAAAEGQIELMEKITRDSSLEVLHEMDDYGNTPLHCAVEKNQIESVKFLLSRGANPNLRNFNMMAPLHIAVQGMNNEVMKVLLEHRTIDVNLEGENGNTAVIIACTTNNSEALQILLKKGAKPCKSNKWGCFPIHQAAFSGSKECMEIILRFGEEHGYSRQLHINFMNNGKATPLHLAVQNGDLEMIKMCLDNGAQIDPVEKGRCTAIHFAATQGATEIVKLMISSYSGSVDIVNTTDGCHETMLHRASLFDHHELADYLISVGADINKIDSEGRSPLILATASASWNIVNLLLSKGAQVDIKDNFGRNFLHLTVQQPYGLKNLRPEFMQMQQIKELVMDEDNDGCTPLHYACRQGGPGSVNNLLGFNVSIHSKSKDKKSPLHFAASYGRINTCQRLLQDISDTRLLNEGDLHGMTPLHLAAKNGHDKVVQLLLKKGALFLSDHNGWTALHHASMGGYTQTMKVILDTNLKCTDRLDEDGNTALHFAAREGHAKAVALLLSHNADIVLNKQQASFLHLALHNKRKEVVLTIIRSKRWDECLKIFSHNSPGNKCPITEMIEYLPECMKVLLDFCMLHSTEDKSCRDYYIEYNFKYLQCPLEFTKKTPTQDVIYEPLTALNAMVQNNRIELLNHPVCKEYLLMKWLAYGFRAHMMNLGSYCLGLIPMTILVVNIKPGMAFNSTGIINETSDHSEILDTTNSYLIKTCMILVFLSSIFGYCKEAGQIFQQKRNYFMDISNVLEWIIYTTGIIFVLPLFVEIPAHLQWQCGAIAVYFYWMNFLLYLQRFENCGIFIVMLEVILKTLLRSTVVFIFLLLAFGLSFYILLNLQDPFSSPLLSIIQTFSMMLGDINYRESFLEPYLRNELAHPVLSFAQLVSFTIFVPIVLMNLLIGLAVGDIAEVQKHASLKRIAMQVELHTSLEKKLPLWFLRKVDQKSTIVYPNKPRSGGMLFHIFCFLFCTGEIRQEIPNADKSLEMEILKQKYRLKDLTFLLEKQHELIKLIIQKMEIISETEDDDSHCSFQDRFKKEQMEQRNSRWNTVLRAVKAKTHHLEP

Point of comparison: `Cn1cnc2ncn(Cc3nc([C@H]4[C@@H]5Cc6ccccc6[C@@H]54)no3)c(=O)c21` (stereo in doubt) [Example Compound 3, 7-methyl-1-[[3-[rac-(1S,1aS,6aR)-1,1a,6,6a-tetrahydrocyclopropa[a]inden-1-yl]-1,2,4-oxadiazol-5-yl]methyl]purin-6-one], IC50 588 nM. Against it:
- Cn1cnc2ncn(Cc3nc([C@@H]4[C@H]5Cc6ccccc6[C@H]54)no3)c(=O)c21 (stereo in doubt) [Example Compound 2, 7-methyl-1-[[3-[rac-(1R,1aR,6aS)-1,1a,6,6a-tetrahydrocyclopropa[a]inden-1-yl]-1,2,4-oxadiazol-5-yl]methyl]purin-6-one] — 2.1-fold lower, 277 nM
- Cc1ccnc2ncn(Cc3nc([C@@H]4[C@H]5Cc6ccccc6[C@H]54)no3)c(=O)c12 (stereo in doubt) [Example Compound 14, 5-methyl-3-[[3-[rac-(1S,1aS,6aR)-1,1a,6,6a-tetrahydrocyclopropa[a]inden-1-yl]-1,2,4-oxadiazol-5-yl]methyl]pyrido[2,3-d]pyrimidin-4-one] — 4.9-fold lower, 119 nM
- Cc1ccnc2ncn(Cc3nc([C@H]4[C@@H]5Cc6ccccc6[C@@H]54)no3)c(=O)c12 (stereo in doubt) [Example Compound 15, 5-methyl-3-[[3-[rac-(1R,1 aR,6aS)-1,1a,6,6a-tetrahydrocyclopropa[a]inden-1-yl]-1,2,4-oxadiazol-5-yl]methyl]pyrido[2,3-d]pyrimidin-4-one] — 1.9-fold lower, 305 nM
- Cc1cncc2ncn(Cc3nc([C@@H]4[C@H]5Cc6ccccc6[C@H]54)no3)c(=O)c12 (stereo in doubt) [Example Compound 19, 5-methyl-3-[[3-[rac-(1R,1 aR,6aS)-1,1a,6,6a-tetrahydrocyclopropa[a]inden-1-yl]-1,2,4-oxadiazol-5-yl]methyl]pyrido[3,4-d]pyrimidin-4-one] — 20-fold lower, 29.9 nM
- Cc1cncc2ncn(Cc3nc([C@H]4[C@@H]5Cc6ccccc6[C@@H]54)no3)c(=O)c12 (stereo in doubt) [Example Compound 20, 5-methyl-3-[[3-[rac-(1S,1aS,6aR)-1,1a,6,6a-tetrahydrocyclopropa[a]inden-1-yl]-1,2,4-oxadiazol-5-yl]methyl]pyrido[3,4-d]pyrimidin-4-one] — 6.2-fold lower, 94.3 nM

Same assay, conditions: read-out: hTRPA1 IC50 (10 min); CHO cells expressing TRPA1; compounds incubated 10 minutes at room temperature before cinnamaldehyde agonist; Hill coefficient fixed to 1.5

Point of comparison: `Cn1cnc2ncn(Cc3nc([C@H]4[C@@H]5CN(c6ccc7c(c6)CCC7)C[C@@H]54)no3)c(=O)c21`, IC50 111 nM. Against it:
- Cn1cnc2ncn(Cc3nc([C@H]4[C@@H]5CN(c6ccccc6Cl)C[C@@H]54)no3)c(=O)c21 — within 1.5-fold, 77.3 nM
- Cn1cnc2ncn(Cc3nc([C@H]4[C@@H]5CN(c6ccc(Cl)c(Cl)c6)C[C@@H]54)no3)c(=O)c21 — 1.7-fold lower, 64.3 nM
- Cn1cnc2ncn(Cc3nc([C@H]4[C@@H]5CN(c6cc(Cl)ccc6F)C[C@@H]54)no3)c(=O)c21 — 8.9-fold lower, 12.5 nM
- Cn1cnc2ncn(Cc3nc([C@H]4[C@@H]5CN(c6cc(F)cc(Cl)c6)C[C@@H]54)no3)c(=O)c21 — 5.4-fold lower, 20.5 nM
- Cn1cnc2ncn(Cc3nc([C@H]4[C@@H]5CN(c6ccc(F)c(Cl)c6)C[C@@H]54)no3)c(=O)c21 — 11-fold lower, 9.78 nM
- Cn1cnc2ncn(Cc3nc([C@H]4[C@@H]5CN(c6cccc(C(F)F)c6)C[C@@H]54)no3)c(=O)c21 — 1.7-fold lower, 64.4 nM
- Cn1cnc2ncn(Cc3nc([C@H]4[C@@H]5CN(c6cccc(SC(F)(F)F)c6)C[C@@H]54)no3)c(=O)c21 — 2.7-fold higher, 300 nM
- CC(=O)c1cccc(N2C[C@@H]3[C@H](C2)[C@H]3c2noc(Cn3cnc4ncn(C)c4c3=O)n2)c1 — 2.7-fold higher, 295 nM
- Cn1cnc2ncn(Cc3nc([C@H]4[C@@H]5CN(c6cccc(C7CC7)c6)C[C@@H]54)no3)c(=O)c21 — within 1.5-fold, 112 nM
- O=c1c2ccncc2ncn1Cc1nc([C@H]2C[C@](F)(c3ccc(Cl)cc3)C2)no1 — 1.7-fold higher, 190 nM
- O=c1c2cccnc2ncn1Cc1nc([C@H]2C[C@H](c3cccc(Cl)c3)C2)no1 — 2.3-fold lower, 49 nM
- O=c1c2cccnc2ncn1Cc1nc([C@H]2C[C@](F)(c3ccc(Cl)cc3)C2)no1 — 5.5-fold lower, 20.2 nM
- O=c1c2cccnc2ncn1Cc1nc([C@H]2C[C@](O)(c3cccc(Cl)c3)C2)no1 — 2.5-fold higher, 281 nM
- Cc1ccnc2ncn(Cc3nc([C@H]4C[C@H](c5cccc(Cl)c5)C4)no3)c(=O)c12 — 9.1-fold lower, 12.2 nM
- Cc1ccnc2ncn(Cc3nc([C@H]4C[C@](O)(c5cccc(Cl)c5)C4)no3)c(=O)c12 — 1.9-fold lower, 57.8 nM
- COc1ccc([C@H]2C[C@H](c3noc(Cn4cnc5nccc(C)c5c4=O)n3)C2)cc1 — 2.9-fold lower, 38.7 nM
- Cc1ccnc2ncn(Cc3nc([C@H]4C[C@H](c5ccc(OC(F)F)cc5)C4)no3)c(=O)c12 — 2.2-fold lower, 51.3 nM
- Cc1ccnc2ncn(Cc3nc([C@H]4C[C@H](c5ccc(OC(F)(F)F)cc5)C4)no3)c(=O)c12 — 1.7-fold lower, 63.8 nM
- Cc1ccnc2ncn(Cc3nc([C@H]4[C@@H]5CN(c6ccccc6)C[C@@H]54)no3)c(=O)c12 — 2.8-fold lower, 39 nM
- Cc1cncc2ncn(Cc3nc([C@H]4[C@@H]5CN(c6ccccc6)C[C@@H]54)no3)c(=O)c12 — 7.6-fold lower, 14.6 nM
- Cc1cncc2ncn(Cc3nc([C@H]4[C@@H]5CN(c6cccc(Cl)c6)C[C@@H]54)no3)c(=O)c12 — within 1.5-fold, 81.5 nM
- Cn1cnc2ncn(Cc3nc([C@H]4[C@@H]5CN(c6ccc7c(cnn7C)c6)C[C@@H]54)no3)c(=O)c21 — within 1.5-fold, 141 nM
- Cn1cnc2ncn(Cc3nc([C@H]4[C@@H]5CN(c6ccc7ccncc7c6)C[C@@H]54)no3)c(=O)c21 — 1.6-fold lower, 69.2 nM
- Cn1cnc2ncn(Cc3nc([C@H]4[C@@H]5CN(c6ccc7ncccc7c6)C[C@@H]54)no3)c(=O)c21 — within 1.5-fold, 166 nM
- Cn1cnc2ncn(Cc3nc([C@H]4[C@@H]5CN(c6cnc7ccccc7c6)C[C@@H]54)no3)c(=O)c21 — 1.5-fold higher, 169 nM
- Cn1cnc2ncn(Cc3nc([C@H]4[C@@H]5CN(c6cncc(Cl)c6)C[C@@H]54)no3)c(=O)c21 — 2.6-fold higher, 287 nM
- Cn1cnc2ncn(Cc3nc([C@@H]4CC[C@@H](c5ccccc5)C4)no3)c(=O)c21 — within 1.5-fold, 149 nM
- Cn1cnc2ncn(Cc3nc([C@H]4C[C@H](c5ccc(OC(F)F)cc5)C4)no3)c(=O)c21 — within 1.5-fold, 142 nM
- Cn1cnc2ncn(Cc3nc([C@H]4C[C@H](c5ccc(OC(F)(F)F)cc5)C4)no3)c(=O)c21 — 1.8-fold higher, 196 nM
- 1-((3-((1R,5S,6r)-3-(3-fluorophenyl)-3-azabicyclo[3.1.0]hexan-6-yl)-1,2,4-oxadiazol-5-yl)methyl)-7-methyl-1,7-dihydro-6H-purin-6-one-2-d [Example Compound 89] — 3.6-fold lower, 31.1 nM
- 1-((3-((1r,3r)-3-((3-chlorophenyl)difluoromethyl) cyclobutyl)-1,2,4-oxadiazol-5-yl)methyl)-7-methyl-1,7-dihydro-6H-purin-6-one [Example Compound 81] — within 1.5-fold, 143 nM
- Cn1cnc2ncn(Cc3nc([C@H]4C[C@H](C(F)(F)c5cccc(F)c5)C4)no3)c(=O)c21 (stereo in doubt) [Example Compound 248, 1-[[3-[trans-3-[difluoro-(3-fluorophenyl)methyl]cyclobutyl]-1,2,4-oxadiazol-5-yl]methyl]-7-methyl-purin-6-one] — 10-fold lower, 11.1 nM
- Cn1cnc2ncn(Cc3nc([C@H]4[C@@H]5CN(c6cccc(OC(F)(F)F)c6)C[C@@H]54)no3)c(=O)c21 [Example Compound 4, 7-methyl-1-[[3-[(1R,5S,6r)-3-(3-trifluoromethoxy)phenyl-3-azabicyclo[3.1.0]hexan-6-yl]-1,2,4-oxadiazol-5-yl]methyl]purin-6-one] — within 1.5-fold, 119 nM
- Cn1cnc2ncn(Cc3nc([C@H]4[C@@H]5CN(c6ccc(OC(F)(F)F)cc6)C[C@@H]54)no3)c(=O)c21 [Example Compound 6, 7-methyl-1-[[3-[(1R,5S,6 r)-3-[4-(trifluoromethoxy)phenyl]-3-azabicyclo[3.1.0]hexan-6-yl]-1,2,4-oxadiazol-5-yl]methyl]purin-6-one] — 2.6-fold lower, 42.4 nM
- Cn1cnc2ncn(Cc3nc([C@H]4[C@@H]5CN(c6ccc(F)cc6)C[C@@H]54)no3)c(=O)c21 [Example Compound 7, 7-methyl-1-[[3-[(1R,5S,6 r)-3-(4-fluorophenyl)-3-azabicyclo[3.1.0]hexan-6-yl]-1,2,4-oxadiazol-5-yl]methyl]purin-6-one] — 3.6-fold lower, 31 nM
- Cn1cnc2ncn(Cc3nc([C@H]4[C@@H]5CN(c6cccc(OC(F)F)c6)C[C@@H]54)no3)c(=O)c21 [Example Compound 8, 7-methyl-1-[[3-[(1R,5S,6 r)-3-[3-(difluoromethoxy)phenyl]-3-azabicyclo[3.1.0]hexan-6-yl]-1,2,4-oxadiazol-5-yl]methyl] purin-6-one] — within 1.5-fold, 105 nM
- Cc1cncc2ncn(Cc3nc([C@H]4C[C@](O)(c5ccc(Cl)cc5)C4)no3)c(=O)c12 [Example Compound 9, 3-((3-((1s,3s)-3-(4-chlorophenyl)-3-hydroxycyclobutyl)-1,2,4-oxadiazol-5-yl)methyl)-5-methylpyrido[3,4-d]pyrimidin-4(3H)-one] — 3.6-fold lower, 30.9 nM
- Cc1ccnc2ncn(Cc3nc([C@H]4C[C@](O)(c5ccc(Cl)cc5)C4)no3)c(=O)c12 [Example Compound 10, 3-((3-((1s,3s)-3-(4-chlorophenyl)-3-hydroxycyclobutyl)-1,2,4-oxadiazol-5-yl)methyl)-5-methylpyrido[2,3-d]pyrimidin-4(3H)-one] — within 1.5-fold, 141 nM
- O=c1c2cccnc2ncn1Cc1nc([C@H]2C[C@](O)(c3ccc(Cl)cc3)C2)no1 [Example Compound 11, 3-((3-((1s,3s)-3-(4-chlorophenyl)-3-hydroxycyclobutyl)-1,2,4-oxadiazol-5-yl)methyl)pyrido[2,3-d]pyrimidin-4(3H)-one] — 2.4-fold higher, 261 nM

Same assay, conditions: read-out: hTRPA1 IC50 (90 min); CHO cells expressing TRPA1; compounds incubated 90 minutes at room temperature before cinnamaldehyde agonist; Hill coefficient fixed to 1.5

In the case of `Cn1cnc2ncn(Cc3nc([C@H]4C[C@H](C(F)(F)c5cccc(F)c5)C4)no3)c(=O)c21` (stereo in doubt) [Example Compound 248, 1-[[3-[trans-3-[difluoro-(3-fluorophenyl)methyl]cyclobutyl]-1,2,4-oxadiazol-5-yl]methyl]-7-methyl-purin-6-one], the IC50 is reported as 5.5 nM.
